This is an account of results in patent US20130053407A1, “PYRROLO [3,2-D] PYRIMIDIN-3-YL DERIVATIVES USED AS ACTIVATORS OF AMPK” (GlaxoSmithKline LLC, priority 2010, published 2013).

In assay [1] the test system is ob/ob and db/db mice. The conditions noted are these: 8 day AICAR administration; cited from earlier work.
In assay [2] the test system is Human recombinant AMPK. The assay is described as follows: AMPK Enzymatic Assay (Z'Lyte FRET). It counts as biochemical. As to conditions: AMPK activation, ATP 100 μM, peptide 2 μM, means of at least 2 independent experiments. How it is done: Human recombinant AMPK (Invitrogen #PV4673 & #PV4675) is used in a FRET assay format (Z'Lyte—Invitrogen). Assay conditions are as follow: ATP 100 μM, peptide (Invitrogen #PR8650) 2 μM, 1% final DMSO in Z'Lyte kinase buffer. Reaction is initiated by addition of 0.2-0.8 ng of AMPK and incubated for 1-hour @ 30° C. A further 1-hour incubation @ 30° C. with the development reagent (Invitrogen #PR5194) is performed. FRET signal is then measured and converted to “% peptide phosphorylation” according to Z′Lyte given calculation procedure. Evaluation of compounds is carried out using concentration-response curves. Final data are expressed in “% activation” calculating the ratio of “% peptide phosphorylation” between compound-condition and basal-condition. […] All data are means of at least 2 independent experiments.

In general, pEC50 refers to the negative decadic logarithm of the EC50, by convention in mol/L.

Turning to `NC(=O)c1ncn([C@@H]2O[C@H](CO)[C@@H](O)[C@H]2O)c1N` [AICAR], the reduces blood glucose in assay [1] is listed as 35%.
For `COc1cccc(-c2ccc(-n3c(Cl)cc4[nH]c(=O)n(-c5cccc(F)c5)c(=O)c43)cc2)c1O` [6-Chloro-3-(3-fluorophenyl)-5-[2′-hydroxy-3′-(methyloxy)-4-biphenylyl]-1H-pyrrolo[3,2-d]pyrimidine-2,4(3H,5H)-dione], the pEC50 in assay [2] was 5.3.
Take `Cc1cccc(-c2ccc(-n3c(Cl)cc4[nH]c(=O)n(-c5ccc(C#N)cc5)c(=O)c43)cc2)c1O` [4-[6-Chloro-5-(2′-hydroxy-3′-methyl-4-biphenylyl)-2,4-dioxo-1,2,4,5-tetrahydro-3H-pyrrolo[3,2-d]pyrimidin-3-yl]benzonitrile]: in assay [2], the pEC50 is given as 5.4.
